The results in this text go back to patent US20180245061A1, “Modified Heterocyclase” (THE UNIVERSITY COURT OF THE UNIVERSITY OF ABERDEEN, priority 2014, published 2018).

Test [1] deals with Lyngbya sp. LynD heterocyclase (SEQ ID NO: 1) variant R427E. The experiment in a line: ITC nucleotide binding (ATP/AMP) to LynD R427E. Also on record: species or system Lyngbya sp. PCC 8106. Particulars: 20° C., pH 7.4, 5 mM MgCl2. The procedure: (§1) Codon optimized full-length LynD (Lyngbya sp. PCC 8106) with an N-terminal TEV protease-cleavable His6-tag was purchased from DNA2.0 in the pJexpress411 plasmid. The protein was expressed in Escherichia coli BL21 (DE3) grown on auto-induction medium {Studier, 2005, Protein expression and purification, 41, 207-234} for 48 h at 20° C. Cells were harvested by centrifugation at 4,000×g, 4° C. for 15 min and re-suspended in lysis buffer (500 mM NaCl, 20 mM Tris pH 8.0, 20 mM imidazole and 3 mM β-mercaptoethanol (BME)) with the addition of complete EDTA-free protease inhibitor tablets (Roche) and 0.4 mg DNase g^−1 wet cells (Sigma). Cells were lysed by passage through a cell disruptor at 30 kPSI (Constant Systems Ltd) and the lysate was cleared by centrifugation at 40,000×g, 4° C. for 20 min. The cleared lysate was applied to a Nickel Sepharose 6 Fast Flow (GE Healthcare) column pre-washed with lysis buffer and protein eluted with 250 mM imidazole. The protein was then passed over a desalting column (Desalt 16/10, GE Healthcare) in 100 mM NaCl, 20 mM Tris pH 8.0, 20 mM imidazole, 3 mM BME. Tobacco etch virus (TEV) protease was added to the protein at a mass-to-mass ratio of 1:10 and the protein digested for 2 h at 20° C. to remove the Hiss-tag. However, removal of the Hiss-tag was not essential for activity and so less vigorous methods for purification may also be used. […]

In test [2] the target is Lyngbya sp. LynD heterocyclase, wild type, SEQ ID NO: 1. The experiment in a line: ITC nucleotide binding (ATP/AMP) to LynD. Also on record: species or system Lyngbya sp. PCC 8106. Particulars: 20° C., pH 7.4, 5 mM MgCl2, one-site model, stoichiometry set to 1, read-out: Nucleotide KD (ATP). As to the method: as §1
Test [3] has as its target Lyngbya sp. LynD heterocyclase (SEQ ID NO: 1) variant E423R. The experiment in a line: ITC nucleotide binding (ATP/AMP) to LynD E423R. The arrangement: species or system Lyngbya sp. PCC 8106. Conditions: 20° C., pH 7.4, 5 mM MgCl2. The procedure:
as §1

Test [4] concerns the target Lyngbya sp. LynD heterocyclase (SEQ ID NO: 1) variant K409A. The experiment in a line: ITC nucleotide binding (ATP/AMP) to LynD K409A. Particulars: 20° C., pH 7.4, 5 mM MgCl2. The arrangement: species or system Lyngbya sp. PCC 8106. As to the method: as §1
In test [5] the target is Lyngbya sp. LynD heterocyclase (SEQ ID NO: 1) variant K409E. The experiment in a line: ITC nucleotide binding (ATP/AMP) to LynD K409E. Also on record: species or system Lyngbya sp. PCC 8106. Conditions: 20° C., pH 7.4, 5 mM MgCl2. The procedure:
as §1

The target in test [6] is Lyngbya sp. LynD heterocyclase (SEQ ID NO: 1) variant R636E. The experiment in a line: ITC nucleotide binding (ATP/AMP) to LynD R636E. The arrangement: species or system Lyngbya sp. PCC 8106. Particulars: 20° C., pH 7.4, 5 mM MgCl2. The procedure: as §1
For a further test, the system named is ITACITACAYDGE
The experiment in a line: Heterocyclization of leaderless substrate peptide ITACITACAYDGE by fused-MicD/PatD enzymes (LC-ESI-MS, MALDI-TOF-MS, HPLC-ESI-MS). It is filed as biochemical. Particulars: 20-30 μM enzyme, 100-110 μM peptide, 5 mM ATP, 5 mM MgCl2, 27° C., 16 h. The procedure:
The Reaction was performed in 100 mM Tris pH 8.0 supplemented with 150 mM NaCl, 5 mM ATP and 5 mM MgCl2 and contained 20 μM enzyme and 100 μM peptide. The mixture was incubated at 27° C. for 16 h. The unprocessed substrate has a molecular weight of 1329.5 Da.
Reaction was performed in 50 mM Bicine pH 9.0 supplemented with 150 mM NaCl, 5 mM ATP and 5 mM MgCl2 and contained 30 μM enzyme and 110 μM peptide. The mixture was incubated at 27° C. for 16 h. The unprocessed substrate has a molecular weight of 1219.5 Da.
Each reaction contained 100 mM Tris pH 8.0, 150 mM NaCl, 5 mM ATP and 5 mM MgCl2, 20 μM of the respective enzyme and 100 μM substrate peptide, and was incubated at 27° C. for 16 h. The unprocessed substrate has a molecular weight of 1329.5 Da.
Reaction was performed in 50 mM Bicine pH 9.0 supplemented with 150 mM NaCl, 5 mM ATP and 5 mM MgCl2 and contained 30 μM enzyme and 110 μM peptide. The mixture was incubated at 27° C. for 16 h. The unprocessed substrate has a molecular weight of 1329.5 Da.
Only 1 peak (9.254 min) indicates the reaction product is only one species. […] Multiple peaks of low intensity compared with m/z=1258.5 can be attributed to noise. Product was purified from the enzyme and ATP using size exclusion chromatography (Superdex 30, GE Healthcare) and exchanged into 50 mM Bicine pH 9.0, 500 mM NaCl and 5% DMSO.

As to `Nc1ncnc2c1ncn2[C@@H]1O[C@H](COP(=O)(O)OP(=O)(O)OP(=O)(O)O)[C@@H](O)[C@H]1O` [ATP], the “Nucleotide KD (ATP)” value in test [1], in test [3], in test [4], in test [5] and in test [6] was “no binding” throughout. The Kd in test [2] is 50.2 µM.

B1: MicD-Q21-9GA: fused-MicD: leader from Q21, 9 GA repeats linker, KL, MicD (SEQ ID NO: 41) (protein)
chain: MSHHHHHHDYDENLYFQGSQLSSQLAELSEEALGDAGAGAGAGAGAGAGAGAGAKLMQSTPLLQIQPHFHVEVIEPKQVYLLGEQANYALTGQLYCQILPLLDGQHSREQIVEKLDGEVPSEYIDYVLDRLAEKGYLTEAAPELSSEVAAFWSELGIAPPVAAEALRQSVTLTPVGNISEVTVAALTTALRDIGISVQTPTEAGSPTALNVVLTDDYLQPELAKINKQALESQQTWLLVKPVGSVLWLGPVFVPGKTGCWDCLAHRLRGNREVEASVLQQKQAQQQRNGQSGSVIGCLPTARATLPSTLQTGLQFAATEIAKWIVKHHVKATAPGTVFFPTLDGKIITFNHTVIDLKSHVLVRRSQCPSCGDRQILHRQGFEPVKLVSRRKHFTHDGGHRAFTPEQTVQKYQHLVSPITGVVTELVRLTDPANPLVHTYKAGHAFGSATTLRGLRNTLKYKSSGKGKTDIQSRASGLCEAIERYSGIFQGDEPRKRATLAELGDLALHPESLLYFSNTQYANREELNAQGSAAAYRWIPNRFDVSQAIDWTPVWSLTEQKHKYVPTAFCYYGYPLPEEQRFCKADSNGNAAGNTLEEAILQGFLELVERDSIAMWWYNRIRRPAVDLSTFDEPYFVDLQQFYQQQNRELWVLDVTADLGIPAFAGFSRRTVGTSERISIGFGAHLDPTIAILRALTEVSQVGLELDKIPDDKLDGESKDWMLNVTVENHPWLAPDPSVPMKTASDYPKRWSDDIHTDVMNCVKTAQTAGLEVMVLDQTRPDIGLNVVKVIIPGMRTFWTRFGQGRLYDIPVKLGWLDAPLAEEELNQTNIPF
modifications: Modified heterocyclase MicroD_Q21_9GA
Take B1: the “heterocyclized species produced from ITACITACAYDGE” value in the test with ITACITACAYDGE is reported as 4; in the test on ITACITACAYDGE (listed as MicD-Q21-9G), “only a single four heterocycle species”.

B2: MicD-R16-GLEAS-5GA: fused-MicD: leader from R16 extended by GLEAS prior to the GA linker (SEQ ID NO: 43) (protein)
chain: MSHHHHHHDYDENLYFQGSRLTAGQLSSQLAELSEEALGDAGLEASGAGAGAGAGAKLMQSTPLLQIQPHFHVEVIEPKQVYLLGEQANYALTGQLYCQILPLLDGQHSREQIVEKLDGEVPSEYIDYVLDRLAEKGYLTEAAPELSSEVAAFWSELGIAPPVAAEALRQSVTLTPVGNISEVTVAALTTALRDIGISVQTPTEAGSPTALNVVLTDDYLQPELAKINKQALESQQTWLLVKPVGSVLWLGPVFVPGKTGCWDCLAHRLRGNREVEASVLQQKQAQQQRNGQSGSVIGCLPTARATLPSTLQTGLQFAATEIAKWIVKHHVKATAPGTVFFPTLDGKIITFNHTVIDLKSHVLVRRSQCPSCGDRQILHRQGFEPVKLVSRRKHFTHDGGHRAFTPEQTVQKYQHLVSPITGVVTELVRLTDPANPLVHTYKAGHAFGSATTLRGLRNTLKYKSSGKGKTDIQSRASGLCEAIERYSGIFQGDEPRKRATLAELGDLALHPESLLYFSNTQYANREELNAQGSAAAYRWIPNRFDVSQAIDWTPVWSLTEQKHKYVPTAFCYYGYPLPEEQRFCKADSNGNAAGNTLEEAILQGFLELVERDSIAMWWYNRIRRPAVDLSTFDEPYFVDLQQFYQQQNRELWVLDVTADLGIPAFAGFSRRTVGTSERISIGFGAHLDPTIAILRALTEVSQVGLELDKIPDDKLDGESKDWMLNVTVENHPWLAPDPSVPMKTASDYPKRWSDDIHTDVMNCVKTAQTAGLEVMVLDQTRPDIGLNVVKVIIPGMRTFWTRFGQGRLYDIPVKLGWLDAPLAEEELNQTNIPF
modifications: Modified heterocyclase MicroD_R16_GLEAS_5GA
Take B2: in the test with ITACITACAYDGE, the “heterocyclized species produced from ITACITACAYDGE” value was “no effect on heterocyclization”.

Broadly, the Kd is the constant that tells how readily two partners part at equilibrium.
